Laboratory results published in patent publication US20250235562A1, “USE OF SECOND NEAR-INFRARED ORGANIC FLUORESCENT COMPOUND IN PREPARATION OF BIOIMAGING CONTRAST AGENT AND IN VASCULAR FLUORESCENCE IMAGING” (INNER MONGOLIA UNIVERSITY, priority 2024, published 2025).

Assay: Photostability test under continuous white light irradiation
Type: physicochemical
Details: 50 mW·cm^−2 white light, continuous irradiation 40 min
Procedure: (3) Photostability test of the nanoimaging agent Y6CT-NPs: commercial imaging agent indocyanine green (ICG) was selected as a reference. Y6CT-NPs and ICG were irradiated continuously by 50 mW·cm^−2 white light (laparoscopic LED cold light source) for 40 min, and the fluorescence intensity of the two were recorded at different time points, a ratio of which to the initial fluorescence intensity was calculated to compare the attenuation degree of fluorescence intensity and photostability between the two.

- change of fluorescence intensity after continuous irradiation: decreases significantly
- fluorescence intensity at 40 min relative to the initial fluorescence intensity: 30%
SMILES: CC1(C)C(/C=C/C=C/C=C/C=C2\N(CCCCS(=O)(=O)O)c3ccc4ccccc4c3C2(C)C)=[N+](CCCCS(=O)(=O)[O-])c2ccc3ccccc3c21 [ICG, indocyanine green]
